Legend:
[1] = tested on: Staphylococcus epidermidis ATCC 35984; assay: Bacterial growth assay, microtiter plates OD600; assay type: cell-based; conditions: untreated growth control = 100%
Method: Bacterial growth assays. Microtiter plates: bacterial growth was evaluated by difference between the optical density absorbance at 600 nm measured at the end and the beginning of the incubation time (37° C., 1, 4 or 24 h) in 96-well poly(vinyl chloride) microtiter plates. Rifampicin 16 μg/mL (Sigma-Aldrich Co., USA) was used as a control for bacterial growth inhibition. Colony-forming units (CFU/mL): after incubation (37° C., 24 h) the CFU was calculated to determine bactericidal effect of peptide solution. Untreated growth control was considered 100% of planktonic cells. All assays were at least performed as technical and biological triplicates.
Microtiter plates: Bacterial growth was evaluated by comparing OD600 values at the start and end of incubation in 96-well PVC microtiter plates.

[2] = tested on: Staphylococcus epidermidis RP62A (ATCC 35984) biofilm; assay: Biofilm formation inhibition, crystal violet in 96-well PVC microtiter plates; assay type: cell-based; conditions: biofilm formation control = 100%
Method: Biofilm formation. […] Biofilm inhibition: a protocol adapted from Zimmer et al. (2013) Environmental Microbiology 15:2008-2018 and Trentin et al. (2015) Scientific Reports 5:8287, employing crystal violet in 96-well poly(vinyl chloride) microtiter plates (Falcon; Becton Dickinson Labware, Oxnard, Calif.) was used. Briefly, 100 μL of the bacterial suspension, 100 μL of the peptide solution (at different concentrations) or vehicle (to controls) and 50 μL of tryptone soya broth (TSB, Oxoid Ltd., England). Following 37° C. for 1, 4 or 24 h of incubation, the content of the wells was removed and the wells were washed three times with sterile saline. The remaining contents were heat-fixed at 60° C. for 1 h. The adherent biofilm layer formed was stained with 0.4% crystal violet for 15 min at room temperature and then washed three times with distilled water. The stain bound to the cells was solubilized with absolute ethanol (Sigma-Aldrich Co., USA) and absorbance was measured at 570 nm (Powerwave™ XS Plate Reader, BIO-TEK Instruments®, Inc.). The biofilm formation controls represent 100% of biofilm formation. Biofilm eradication: biofilm was pre-formed as described before, during 24 h at 37° C., without treatment. After biofilm formation, the wells were washed to remove the planktonic cells and the peptides solutions and controls were added and incubated for 24 h. The eradication was verified by evaluating the remaining content by crystal violet.
Biofilm formation inhibition: A protocol adapted from Trentin et al. (2015) Scientific Reports 5 was used, with crystal violet in 96-well BD Falcon polyvinyl chloride (PVC) microtiter plates. The cell-bound stains were solubilized with absolute ethanol (Sigma-Aldrich), and absorbance was measured at 570 nm using a BIO-TEK PowerWave XS plate reader. The biofilm formation control represents 100% of biofilm formation.

[3] = positive control, concentration 780 (μM)

Row | Molecule | Growth (%) ([1]; peptide concentration 100 μM) | Remanescent biofilm (%) ([2]; peptide concentration 100 μM) | further results
1 | CO[C@H]1/C=C/O[C@@]2(C)Oc3c(C)c(O)c4c(O)c(c(/C=N/N5CCN(C)CC5)c(O)c4c3C2=O)NC(=O)/C(C)=C\C=C\[C@H](C)[C@H](O)[C@@H](C)[C@@H](O)[C@@H](C)[C@H](OC(C)=O)[C@@H]1C [Rifampicin, reference compound] | – | – | Growth (%) [1, 3]: 28.7%; Remanescent biofilm (%) [2, 3]: 9.7%
2 | IQQAQQLS (P3y) | – | – | Growth (%) ([1]; peptide concentration 10 μM): 172.0%; Remanescent biofilm (%) ([2]; peptide concentration 10 μM): 6.2%
3 | RSCQQQ (P3x) | 91.9 | 34.4 | –
4 | RSCQQQIQQAQQ (P3a) | 89.9 | 61.5 | –
5 | RSCQQQIQQAQQLSSCQQYLKQRVQSEEGEDQISQRE (P31) [synthetic peptide derived from 2S sulfur-rich seed storage protein 2-like of Capsicum baccatum] | – | – | Growth (%) ([1]; peptide concentration 400 μM): 88.6%; Remanescent biofilm (%) ([2]; peptide concentration 400 μM): 8.3%
6 | RVQSEEGEDQISQRE (P1) | 123.2 | 64.9 | –
7 | SCQQYLKQ (P3z) | 169.9 | 46.3 | –

Reference: US20220153786A1, “PEPTIDES FOR PREVENTING BIOFILM FORMATION” (priority 2019, published 2022)
